Patent US10323036B2 (Nimbus Lakshmi, Inc., priority 2016, dated 2019)
Where two headings read alike, the source gives them in different places.

Target: human TYK2 (JH2domain-pseudokinase) (Homo sapiens (Human), UniProt P29597)
Test: TYK2 JH2 Domain Binding Assay (KINOMEscan)
[1] = Table 4, JH2 binding assay, read-out: JH2 Kd
[2] = Table 5, Tyk2 JH2 Domain Binding Assay, read-out: JH2 Kd

Chain of human TYK2 (JH2domain-pseudokinase) (P29597 556-888): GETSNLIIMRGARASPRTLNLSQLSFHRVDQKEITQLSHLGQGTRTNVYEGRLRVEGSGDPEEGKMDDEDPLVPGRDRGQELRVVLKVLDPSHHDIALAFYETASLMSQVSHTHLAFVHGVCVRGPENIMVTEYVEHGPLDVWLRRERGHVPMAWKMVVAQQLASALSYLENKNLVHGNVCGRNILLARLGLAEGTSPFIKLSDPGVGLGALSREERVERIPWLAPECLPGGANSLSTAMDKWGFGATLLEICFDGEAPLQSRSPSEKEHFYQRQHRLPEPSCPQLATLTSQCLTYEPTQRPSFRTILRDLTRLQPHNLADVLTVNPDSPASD

## COc1c(F)cccc1Nc1cc(Nc2cc(C)ccn2)nc2[nH]n(C)c(=O)c12 [Compound I-83, 4-((3-fluoro-2-methoxyphenyl)amino)-2-methyl-6-((4-methylpyridin-2-yl)amino)-1,2-dihydro-3H-pyrazolo[3,4-b]pyridin-3-one]
[1]
  Kd: 1 to 10 nM

## COc1c(Cl)cccc1Nc1cc(Nc2cncc(C#N)n2)nc2[nH]n(C)c(=O)c12 [Compound I-117, 6-((4-((3-chloro-2-methoxyphenyl)amino)-2-methyl-3-oxo-2,3-dihydro-1H-pyrazolo[3,4-b]pyridin-6-yl)amino)pyrazine-2-carbonitrile]
[1]
  Kd: > 10 nM

## Cc1ncc(Nc2cc(Nc3ccc(C4CC4)cc3S(C)(=O)=O)c3c(=O)n(C)[nH]c3n2)nc1C [Compound I-211, 4-((4-cyclopropyl-2-(methylsulfonyl)phenyl)amino)-6-((5,6-dimethylpyrazin-2-yl)amino)-2-methyl-1,2-dihydro-3H-pyrazolo[3,4-b]pyridin-3-one]
[1]
  Kd: 0.5 to 1 nM

## COc1c(C#N)cccc1Nc1cc(Nc2ccc(N3CCOCC3)cn2)nc2[nH]n(C)c(=O)c12 [Compound I-36]
[1]
  Kd: > 10 nM

## Cn1[nH]c2nc(NC(=O)C3CC3)cc(Nc3ccc(C4CC4)cc3S(C)(=O)=O)c2c1=O [Compound I-201, N-(4-((4-cyclopropyl-2-(methylsulfonyl)phenyl)amino)-2-methyl-3-oxo-2,3-dihydro-1H-pyrazolo[3,4-b]pyridin-6-yl)cyclopropanecarboxamide]
[1]
  Kd: < 0.1 nM

## CN(c1cc(C2CCOCC2)ccc1Nc1cc(NC(=O)C2CC2)nc2[nH]n(C)c(=O)c12)S(C)(=O)=O [Compound I-234]
[1]
  Kd: 0.1 to 0.5 nM

## COc1c(F)cccc1Nc1cc(NC(=O)C2CC2)nc2[nH]n(C)c(=O)c12 [Compound I-48, N-(4-((3-fluoro-2-methoxyphenyl)amino)-2-methyl-3-oxo-2,3-dihydro-1H-pyrazolo[3,4-b]pyridin-6-yl)cyclopropanecarboxamide]
[1]
  Kd: 0.5 to 1 nM

## COc1c(Nc2cc(Nc3ccc(N4CCCCC4)cn3)nc3[nH]n(C)c(=O)c23)cccc1-c1nnn(C)n1 [Compound I-11, 4-((2-methoxy-3-(2-methyl-2H-tetrazol-5-yl)phenyl)amino)-2-methyl-6-((5-(piperidin-1-yl)pyridin-2-yl)amino)-1,2-dihydro-3H-pyrazolo[3,4-b]pyridin-3-one]
[1]
  Kd: > 10 nM

## COc1c(Nc2cc(Nc3cc(C#N)ncn3)nc3[nH]n(C)c(=O)c23)cccc1-c1ncn(C)n1 [Compound I-31, 6-((4-((2-methoxy-3-(1-methyl-1H-1,2,4-triazol-3-yl)phenyl)amino)-2-methyl-3-oxo-2,3-dihydro-1H-pyrazolo[3,4-b]pyridin-6-yl)amino)pyrimidine-4-carbonitrile]
[1]
  Kd: < 0.1 nM

## CCc1ncc(Nc2cc(Nc3cccc(Cl)c3OC)c3c(=O)n(C)[nH]c3n2)nc1C#N [Compound I-147, 6-((4-((3-chloro-2-methoxyphenyl)amino)-2-methyl-3-oxo-2,3-dihydro-1H-pyrazolo[3,4-b]pyridin-6-yl)amino)-3-ethylpyrazine-2-carbonitrile]
[1]
  Kd: > 10 nM

## CNc1nc(-c2cccc(-c3nnn(C)n3)c2OC)n2cc(NC(=O)C3CC3)ncc12 [XVI-2]
[2]
  Kd: > 100 nM
Tyk2 JH2 Domain Binding Assay, read-out: Kd
  Kd: 10 to 185 nM

## COCc1ccnc(Nc2cc(Nc3ccccc3S(C)(=O)=O)c3c(=O)n(C)[nH]c3n2)c1 [Compound I-110, 6-((4-(methoxymethyl)pyridin-2-yl)amino)-2-methyl-4-((2-(methylsulfonyl)phenyl)amino)-1,2-dihydro-3H-pyrazolo[3,4-b]pyridin-3-one]
[1]
  Kd: 1 to 10 nM

## COc1c(Nc2cc(NC(=O)C3CC3)nc3[nH]n(C)c(=O)c23)cccc1-c1ccn(C)n1 [Compound I-57]
[1]
  Kd: < 0.1 nM

## Cn1[nH]c2nc(Nc3cccc(C(F)(F)F)n3)cc(Nc3ccc(C4CC4)cc3S(C)(=O)=O)c2c1=O [Compound I-215, 4-((4-cyclopropyl-2-(methylsulfonyl)phenyl)amino)-2-methyl-6-((6-(trifluoromethyl)pyridin-2-yl)amino)-1,2-dihydro-3H-pyrazolo[3,4-b]pyridin-3-one]
[1]
  Kd: 0.1 to 0.5 nM

## COc1c(Nc2cc(NC(=O)C3CC3)nc3[nH]n(C)c(=O)c23)cccc1-n1nc(C)c(C)n1 [Compound I-149]
[1]
  Kd: > 10 nM

## COc1c(Nc2cc(Nc3ccc(N4CCCCC4)cn3)nc3[nH]n(C)c(=O)c23)cccc1-c1ccn(C)n1 [Compound I-124, 4-((2-methoxy-3-(1-methyl-1H-pyrazol-3-yl)phenyl)amino)-2-methyl-6-((5-(piperidin-1-yl)pyridin-2-yl)amino)-1,2-dihydro-3H-pyrazolo[3,4-b]pyridin-3-one]
[1]
  Kd: 1 to 10 nM

## COCc1ccnc(Nc2cc(Nc3cccc(-c4nnn(C)n4)c3OC)c(-c3ncc(Cl)s3)cn2)c1 [VIII-17, 5-(5-chlorothiazol-2-yl)-N4-(2-methoxy-3-(2-methyl-2H-tetrazol-5-yl)phenyl)-N2-(4-(methoxymethyl)pyridin-2-yl)pyridine-2,4-diamine]
[2]
  Kd: 0.1 to 1 nM

## COc1c(Nc2cc(Nc3cccc(C(F)(F)F)n3)nc3[nH]n(C)c(=O)c23)cccc1-c1nnn(C)n1 [Compound I-60, 4-((2-methoxy-3-(2-methyl-2H-tetrazol-5-yl)phenyl)amino)-2-methyl-6-((6-(trifluoromethyl)pyridin-2-yl)amino)-1,2-dihydro-3H-pyrazolo[3,4-b]pyridin-3-one]
[1]
  Kd: 0.1 to 0.5 nM

## COc1c(F)cccc1Nc1cc(Nc2ccc(N3CCCCC3)cn2)nc2[nH]n(C)c(=O)c12 [Compound I-77, 4-((3-fluoro-2-methoxyphenyl)amino)-2-methyl-6-((5-(piperidin-1-yl)pyridin-2-yl)amino)-1,2-dihydro-3H-pyrazolo[3,4-b]pyridin-3-one]
[1]
  Kd: 1 to 10 nM

## Cc1ccc(Nc2cc(NC(=O)C3CC3)nc3[nH]n(C)c(=O)c23)c(N(C)S(C)(=O)=O)c1 [Compound I-229, N-(2-methyl-4-((4-methyl-2-(N-methylmethylsulfonamido)phenyl)amino)-3-oxo-2,3-dihydro-1H-pyrazolo[3,4-b]pyridin-6-yl)cyclopropanecarboxamide]
[1]
  Kd: < 0.1 nM

## Cn1[nH]c2nc(NC(=O)C3CC3)cc(Nc3ccc(C4CCC4)cc3S(C)(=O)=O)c2c1=O [Compound I-182, N-(4-((4-cyclobutyl-2-(methylsulfonyl)phenyl)amino)-2-methyl-3-oxo-2,3-dihydro-1H-pyrazolo[3,4-b]pyridin-6-yl)cyclopropanecarboxamide]
[1]
  Kd: 0.1 to 0.5 nM

## COc1c(Nc2cc(Nc3cc(C)c(F)cn3)nc3[nH]n(C)c(=O)c23)cccc1-c1ncn(C)n1 [Compound I-21, 6-((5-fluoro-4-methylpyridin-2-yl)amino)-4-((2-methoxy-3-(1-methyl-1H-1,2,4-triazol-3-yl)phenyl)amino)-2-methyl-1,2-dihydro-3H-pyrazolo[3,4-b]pyridin-3-one]
[1]
  Kd: 0.1 to 0.5 nM

## COc1c(Nc2cc(Nc3ccn(C)n3)nc3[nH]n(C)c(=O)c23)cccc1-c1nnn(C)n1 [Compound I-13, 4-((2-methoxy-3-(2-methyl-2H-tetrazol-5-yl)phenyl)amino)-2-methyl-6-((1-methyl-1H-pyrazol-3-yl)amino)-1,2-dihydro-3H-pyrazolo[3,4-b]pyridin-3-one]
[1]
  Kd: < 0.1 nM

## COc1c(F)cccc1Nc1cc(Nc2ccc(C3CC3)cn2)nc2[nH]n(C)c(=O)c12 [Compound I-91, 6-((5-cyclopropylpyridin-2-yl)amino)-4-((3-fluoro-2-methoxyphenyl)amino)-2-methyl-1,2-dihydro-3H-pyrazolo[3,4-b]pyridin-3-one]
[1]
  Kd: 1 to 10 nM

## COc1c(Nc2cc(NC(=O)C3CC3)nc3[nH]n(C)c(=O)c23)cccc1C(N)=O [Compound I-102, 3-((6-(cyclopropanecarboxamido)-2-methyl-3-oxo-2,3-dihydro-1H-pyrazolo[3,4-b]pyridin-4-yl)amino)-2-methoxybenzamide]
[1]
  Kd: > 10 nM

## COc1c(Cl)cccc1Nc1cc(Nc2cc(CO)ccn2)nc2[nH]n(C)c(=O)c12 [Compound I-101, 4-((3-chloro-2-methoxyphenyl)amino)-6-((4-(hydroxymethyl)pyridin-2-yl)amino)-2-methyl-1,2-dihydro-3H-pyrazolo[3,4-b]pyridin-3-one]
[1]
  Kd: 1 to 10 nM

## COC1CN(c2ccc(Nc3cc(NC(=O)C4CC4)nc4[nH]n(C)c(=O)c34)c(N(C)S(C)(=O)=O)c2)C1 [Compound I-220, N-(4-((4-(3-methoxyazetidin-1-yl)-2-(N-methylmethylsulfonamido)phenyl)amino)-2-methyl-3-oxo-2,3-dihydro-1H-pyrazolo[3,4-b]pyridin-6-yl)cyclopropane-carboxamide]
[1]
  Kd: 0.1 to 0.5 nM

## [2H]C([2H])([2H])n1[nH]c2nc(NC(=O)C3CC3)cc(Nc3cccc(-c4nnn(C)n4)c3OC)c2c1=O [Compound I-100]
[1]
  Kd: < 0.1 nM

## COc1c(Nc2cc(Nc3ccc(C#N)cn3)nc3[nH]n(C)c(=O)c23)cccc1-c1ncn(C)n1 [Compound I-25, 6-((4-((2-methoxy-3-(1-methyl-1H-1,2,4-triazol-3-yl)phenyl)amino)-2-methyl-3-oxo-2,3-dihydro-1H-pyrazolo[3,4-b]pyridin-6-yl)amino)nicotinonitrile]
[1]
  Kd: 0.1 to 0.5 nM

## COc1c(F)cccc1Nc1cc(Nc2cc(C)c(F)cn2)nc2[nH]n(C)c(=O)c12 [Compound I-73, 4-((3-fluoro-2-methoxyphenyl)amino)-6-((5-fluoro-4-methylpyridin-2-yl)amino)-2-methyl-1,2-dihydro-3H-pyrazolo[3,4-b]pyridin-3-one]
[1]
  Kd: 1 to 10 nM

## CCNC(=O)c1ccc(Nc2cc(NC(=O)C3CC3)nc3[nH]n(C)c(=O)c23)c(OC)c1 [Compound I-114, 4-((6-(cyclopropanecarboxamido)-2-methyl-3-oxo-2,3-dihydro-1H-pyrazolo[3,4-b]pyridin-4-yl)amino)-N-ethyl-3-methoxybenzamide]
[1]
  Kd: 1 to 10 nM

## COc1c(Nc2cc(Nc3ccc(C)cn3)nc3[nH]n(C)c(=O)c23)cccc1-c1nnn(C)n1 [Compound I-3, 4-((2-methoxy-3-(2-methyl-2H-tetrazol-5-yl)phenyl)amino)-2-methyl-6-((5-methylpyridin-2-yl)amino)-1,2-dihydro-3H-pyrazolo[3,4-b]pyridin-3-one]
[1]
  Kd: 0.1 to 0.5 nM
